Measured values from patent US11773352B2, “Hydrochlorofluoroolefins and methods of using same” (3M INNOVATIVE PROPERTIES COMPANY, priority 2018, dated 2023).

How the values were obtained:
[1] = Largest Soluble Hydrocarbon (LSH) test; type: physicochemical; settings: compound:hydrocarbon about 1:1 to 1:2 by weight
Procedure: Largest Soluble Hydrocarbon (LSH): The LSH of each hydrofluoroolefin compound was determined by mixing the compound with hydrocarbons of varying molecular weight (CnH2n+2, where n=9 to 24) in a hydrofluoroolefin:hydrocarbon ratio of about 1:1 to 1:2 by weight at room temperature (25° C.) and at 50° C. […] A larger value of n is interpreted herein to indicate a greater ability of the hydrofluoroolefin to clean hydrocarbons.
The results presented in Table 2 indicate that the hydrofluoroolefins of the present invention are highly suitable fluids for cleaning applications.

[2] = Atmospheric lifetime from rate of reaction with hydroxyl radicals; type: physicochemical; settings: gas phase, relative to reference compounds such as chloromethane and ethane, FTIR
Procedure: Atmospheric lifetime: The atmospheric lifetime of Example 1 was determined from the rate of reaction with hydroxyl radicals. The pseudo-first order rate for the reaction of the gaseous hydrobromofluoroolefin with hydroxyl radical was measured in a series of experiments relative to reference compounds such as chloromethane and ethane. The measurements were performed in a 5.7 L, heated FTIR gas cell equipped with a polished semiconductor-grade quartz window. An Oriel Instruments UV Lamp, Model 66921 equipped with a 480 W mercury-xenon bulb was used to generate hydroxyl radicals by photolyzing ozone in the presence of water vapor. The concentrations of the hydrobromofluoroolefin and the reference compound were measured as a function of reaction time using an I-Series FTIR from Midac Corporation, Westfield, Mass., US. The atmospheric lifetime was calculated from the reaction rates for the hydrobromofluoroolefin relative to the reference compounds and the reported lifetime of the reference compounds as shown below:
[formula] where τx is the atmospheric lifetime of hydrobromofluoroolefin, τr is the atmospheric lifetime of the reference compound, and kx and kr are the rate constants for the reaction of hydroxyl radical with hydrobromofluoroolefin and the reference compound, respectively. Sample Preparation

[3] = 25° C., longest hydrocarbon compatible without haze
[4] = 50° C., largest hydrocarbon used C-23

| SMILES | LSH (n in CnH2n+2) [1, 3] | LSH (n in CnH2n+2) [1, 4] | atmospheric lifetime [2] |
| --- | --- | --- | --- |
| COC(=C(Cl)C(F)(F)F)C(F)(F)F [Example 1, 2-Chloro-1,1,1,4,4,4-hexafluoro-3-methoxybut-2-ene] | 19 | >23 | 0.04 years |
| COC1=C(Cl)C(F)(F)C(F)(F)C1(F)F [Example 4, 1-Chloro-3,3,4,4,5,5-hexafluoro-2-methoxycyclopent-1-ene] | 19 | >23 | – |
